Assay [1] has as its system RPE65, BEST1, CRALBP. The experiment in a line: RT-PCR of retinal pigment epithelial cell markers after MEK inhibitor or FGF receptor inhibitor treatment step. It counts as cell-based, human. Conditions: first step 6 days (1 μM PD0325901 or 100 nM PD173074); 1231A3 line; day 43; bands very thin when untreated. The protocol: 2014 Jan. 8; 4: 3594”. The medium used was […] A[…] medium (Ajinomoto Co., Inc.) (hereinafter A[…] medium). […] After observation on day 43 of culture, the cells were collected, RNA was extracted and RT-PCR was performed. RNEASYTM Micro Kit (QIAGEN) was used for RNA extraction, Oligo(dT)12-18Primer (Invitrogen) and SUPERSCRIPTTM III Reverse Transcriptase (Invitrogen) were used for reverse transcription reaction, and BLEND TAQTM-Plus-(TOYOBO) was used for PCR. The primer sequences of RPE65, BEST1, CRLBP, GAPDH are as described below. […] NO: 1), […] NO: 2), […] NO: 3), […] NO: 4), CRALBP-[…] NO: 5), CRALBP-[…] NO: 6), […] NO: 7), […] NO: 8). The number of cycles of the PCR reaction was 30 cycles for RPE65, BEST1, GAPDH, and 35 cycles for CRALBP. PCR products were detected as a single band by agarose gel electrophoresis at near 369 bp for RPE65, near 261 bp for BEST1, near 341 bp for CRALBP, and near 452 bp for GAPDH. As a positive control, primary human RPE (hRPE) was used and, as a negative control, iPS cells (undifferentiated iPSC) cultured under conditions for maintaining undifferentiated state were used.

The subject of assay [2] is human iPS cells (201B7, 1231A3, Ff-I01, QHJI01 lines). The experiment in a line: Production of RPE cells including MEK inhibitor or FGF receptor inhibitor treatment step (first step); observation of brown-black cell population. The format is cell-based. An excerpt:
In one embodiment, to study the effect of the FGF receptor inhibitor in a medium free of a factor for maintaining undifferentiated state (bFGF), STEMSURE™ hPSC Medium Δ (Wako Pure Chemical Industries, Ltd.) (hereinafter STEMSURE™ hPSC Medium Δ w/o bFGF) not added with bFGF was used.
2014 Jan. 8; 4: 3594”. The medium used was STEMFIT™ AK03N medium (Ajinomoto Co., Inc.) (hereinafter AK03N medium).

Experimental findings from patent US11618883B2, “Method for producing retinal pigment epithelial cells” (SUMITOMO PHARMA CO., LTD., priority 2017, dated 2023) are described below.

As to `CCN(CC)CCCCNc1ncc2cc(-c3cc(OC)cc(OC)c3)c(NC(=O)NC(C)(C)C)nc2n1` [PD173074, N-[2-[[4-(Diethylamino)butyl]amino]-6-(3,5-dimethoxyphenyl)pyrido[2,3-d]pyrimidin-7-yl]-N′-(1,1-dimethylethyl)urea], the “RT-PCR bands of retinal pigment epithelial cell markers RPE65, BEST1, CRALBP” value in assay [1] is listed as “clear bands could be confirmed”. Further, the “emergence of a brown-black cell population” value in assay [2] (PD173074 100 nM, 6 days first step, AK03, ESSENTIAL 8 or STEMSURE hPSC Medium Δ w/o bFGF, 201B7 and/or 1231A3 line, 38 to 42 days of culture) is recorded as “could be confirmed over a wide area”; in assay [2] (first step 6 days (1 μM PD0325901 or 100 nM PD173074), 1231A3 line, day 43 of culture) it was “could be confirmed over a wide area”; in assay [2] (first step 6 days (1 μM PD0325901 or 100 nM PD173074), Ff-I01 and QHJI01 lines, day 43 of culture), “could be confirmed over a wide area”; in assay [2] (first step 6 days: 100 nM PD173074, 5, 10, 20 μM SU5402, QHJI01 and 1231A3 lines, day 49 of culture) it was “could be confirmed over a wide area”. In addition, the “concentrations at which emergence of a brown-black cell population could be confirmed over a wide area” value in assay [2] (PD173074, all concentrations studied, first step 6 days, QHJI01 line, day 36 and day 49 of culture) was in the range of 25 to 400 nM. The “emergence of RPE cells showing typical characteristics of RPE cell” value in assay [2] (first step 6 days (1 μM PD0325901 or 100 nM PD173074), 201B7 and 1231A3 lines, 38 to 47 days of culture) is reported as “could be confirmed”.
